This passage reports EC50 and Emax results from patent US12275733B2, “Substituted pyrido[3,4-b]indoles for the treatment of cartilage disorders” (Sanofi, priority 2016, dated 2025).

The subject of this assay is ATDC5 cells. Briefly: Chondrogenesis activity assay in ATDC5 cells (collagen type II induction, immunofluorescence). Particulars: Mus musculus; for EC50: collagen type II induction in ATDC5 cells, concentration reaching 50% of maximum induction; for Emax: maximum percent induction of collagen type II relative to internal reference compound at 10 μM, ATDC5 cells. It counts as cell-based, mouse. Put shortly: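 Mouse ATDC5 cells in insulin (10 μg/ml)-containing DMEM/F12 differentiation medium with 5% FCS were exposed to compound, typically 40 nM–10 μM at 0.1% DMSO, for 4 days at 37 °C. Intracellular collagen type II was quantified by Alexa Fluor 488 immunostaining with high-content imaging, relative to DMSO and a 10 μM reference compound.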

Usually EC50 stands for the concentration giving half of the maximal effect. In general, Emax refers to the greatest response seen or fitted, relative to the assay's reference. In the case of `CCn1c2cnccc2c2cc(Cl)cc(-c3ccco3)c21` [Example 124, 6-Chloro-9-ethyl-8-furan-2-yl-9H-pyrido[3,4-b]indole], a half-maximal response (EC50) required 2600 nM and the Emax was less than 20%.

`CSc1ccc(-c2cc(Cl)cc3c2[nH]c2c(C)nccc23)cn1` [Example 120, 6-Chloro-1-methyl-8-(6-methylsulfanyl-pyridin-3-yl)-9H-pyrido[3,4-b]indole]: the EC50 worked out at 1400 nM and the Emax is 50 to 80%.

Take `CCn1c2c(-c3cn[nH]c3)cc(Cl)cc2c2ccnc(C)c21` [Example 239, 6-Chloro-9-ethyl-1-methyl-8-(1H-pyrazol-4-yl)-9H-pyrido[3,4-b]indole]: the EC50 was 250 nM and the Emax lay in the range of 50 to 80%.

`Cc1nccc2c1[nH]c1c(-c3cnc(-n4cccc4)nc3)cc(Cl)cc12` [Example 156, 6-Chloro-1-methyl-8-(2-pyrrol-1-yl-pyrimidin-5-yl)-9H-pyrido[3,4-b]indole]: the EC50 was 1500 nM and the Emax is less than 20%.

Molecule `CCn1c2cnccc2c2cc(Cl)cc(-c3ccncc3)c21` [Example 123, 6-Chloro-9-ethyl-8-pyridin-4-yl-9H-pyrido[3,4-b]indole] yielded an EC50 of 260 nM and an Emax of 20 to 50%.

Consider `Clc1ccc(-c2cc(Cl)cc3c4ccncc4n(CC4CC4)c23)cc1` [Example 291, 6-Chloro-8-(4-chloro-phenyl)-9-cyclopropylmethyl-9H-pyrido[3,4-b]indole], for which it took 1700 nM to reach a half-maximal effect (EC50) and the Emax is 50 to 80%.

The molecule `Cc1nccc2c1[nH]c1c(-c3ccc(Cl)cc3Cl)cc(Cl)cc12` [Example 190, 6-Chloro-8-(2,4-dichloro-phenyl)-1-methyl-9H-pyrido[3,4-b]indole] showed an EC50 of 720 nM and a maximum response (Emax) greater than 80%.

`FC(F)(F)Cn1c2cnccc2c2cc(Cl)cc(-c3cnn4ccccc34)c21` [Example 139, 6-Chloro-8-pyrazolo[1,5-a]pyridin-3-yl-9-(2,2,2-trifluoro-ethyl)-9H-pyrido[3,4-b]indole] yielded an EC50 greater than 10000 nM and a maximum response (Emax) of less than 20%.

For the molecule `Cc1nccc2c3cc(Cl)cc(-c4ccccc4C(N)=O)c3n(CC3CC3)c12` [Example 292, 2-(6-Chloro-9-cyclopropylmethyl-1-methyl-9H-pyrido[3,4-b]indol-8-yl)-benzamide], the EC50 is greater than 6600 nM and the Emax is less than 20%.

Take `Cc1nccc2c3cc(Cl)cc(-c4cnn(C)c4)c3n(C)c12` [Example 25, 6-Chloro-1,9-dimethyl-8-(1-methyl-1H-pyrazol-4-yl)-9H-pyrido[3,4-b]indole]: the 50% effective concentration (EC50) came to 170 nM and the Emax is greater than 80%.

Molecule `Cc1nccc2c1[nH]c1c(-c3ccc(C(F)(F)F)cc3)cc(Cl)cc12` [Example 252, 6-Chloro-1-methyl-8-(4-trifluoromethyl-phenyl)-9H-pyrido[3,4-b]indole] showed an EC50 of 1600 nM and a maximal effect (Emax) greater than 80%.

Take `CCn1c2cnccc2c2cc(Cl)cc(-c3ccccc3Cl)c21` [Example 145, 6-Chloro-8-(2-chloro-phenyl)-9-ethyl-9H-pyrido[3,4-b]indole]: a half-maximal response (EC50) required 480 nM and the Emax is less than 20%.

For `Cc1nccc2c1[nH]c1c(-c3ccc(C=O)cc3)cc(Cl)cc12` [Example 31, 4-(6-Chloro-1-methyl-9H-pyrido[3,4-b]indol-8-yl)-benzaldehyde], the concentration for a half-maximal effect (EC50) came out at 250 nM and the Emax was greater than 80%.

In turn, `Cc1nccc2c1[nH]c1c(-c3ccc(C(O)c4ccccc4)cc3)cc(Cl)cc12` (stereo not drawn) [Example 24, [4-(6-Chloro-1-methyl-9H-pyrido[3,4-b]indol-8-yl)-phenyl]-phenyl-methanol] came in with an EC50 of 2000 nM and an Emax of 50 to 80%.

On to `CC#CCn1c2cnccc2c2cc(Cl)cc(-c3ccc(Cl)nc3)c21` [Example 90, 9-But-2-ynyl-6-chloro-8-(6-chloro-pyridin-3-yl)-9H-pyrido[3,4-b]indole], for which the EC50 is greater than 10000 nM and the Emax is less than 20%.
